These results are taken from patent publication US9951046B2, “TRPA1 modulators” (Algomedix, Inc., priority 2014, dated 2018).

In assay [1] the target is T1, human TRPA1 (Homo sapiens, UniProt O75762).
T1 construct: expressed in transfected cells
As to the kind of experiment: Cell-based functional intracellular calcium ([Ca2+]i) assay, Fluo-4/Fluo-8, FlexStation, challenge with reference TRPA1 agonist (FFA, AITC or 4-HNE). Particulars: HEK293 cells expressing human TRPA1; IC50 class after addition of reference TRPA1 agonist (FFA, AITC or 4-HNE); read-out: human TRPA1-HEK Activity. In short, it runs like this: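 Doxycycline-induced (1 μg/ml) HEK293 expressing human TRPA1, with 5 μM ruthenium red during induction, loaded with Fluo-4 or Fluo-8 plus 2 mM probenecid; FlexStation read at 20-25° C, sometimes with 0.1% BSA.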

Assay [2] concerns neuropathic pain after L5-L6 spinal nerve injury. The experiment in a line: Spinal nerve ligation (SNL, Chung) neuropathic pain model, von Frey test. In kind it is in vivo, rat. The settings on record: 30 mg/kg i.p.; for % MPE (% Maximum Possible Effect): rat, 18 days after L5-L6 spinal nerve injury, von Frey test 2 hrs post-dose, number of experiments in brackets; for anti-allodynic effect on paw withdrawal threshold and % MPE: rats 18 days after L5-L6 spinal nerve injury, mechanical allodynia 2 hrs post-dose, p<0.001 vs vehicle. The source says:
This example describes the use of an animal model for testing compounds of the disclosure for their ability to reduce neuropathic pain. For the neuropathic pain model (spinal nerve ligation, SNL) also known as the Chung model, rats are anesthetized with isoflurane and placed on a heating pad. Using aseptic techniques, the L5 and L6 spinal nerves are exposed, ligated and transected (Kim, S. H. and Chung, J. […] Muscle and skin are closed with 4-0 Polydiaxone and wound clips, respectively. Allodynia is assessed 2-4 weeks post SNL surgery and only rats that develop allodynia as defined by a significant decrease in their mechanical threshold using von Frey filaments are used. Tactile allodynia is assessed with calibrated von Frey filaments (Stoelting Co, Wood Dale, Ill.), using an up-down paradigm (Chaplan, S. R., et al. (1994) J. Neurosci. Methods, 53 (1): 55-63). […] Test compounds are administered to the surgically treated rats either orally or I.P, and pain measurements are assessed at post-dosing intervals that correspond to near-maximal peak plasma concentrations for the test compound and specific mode of administration. The action of test compounds 175, 180, and 198 was evaluated in the Chung model after surgery to induce neuropathy. […] (10 ml/kg) was administered as a positive control group. Vehicle and test compounds were dissolved in 10% DMSO, 20% Tween-80 and 40% PEG-400. On the day before treatment, the neuropathic pain basal response was measured by von Frey test and the rats were randomized based on PWT responses. A cut-off of <4.0 g was considered before selection of animals for treatment. On the day of treatment, the test compounds were administered at 30 mg/kg i.p. (10 ml/kg) dissolved in 10% DMSO, 20% Tween-80, 40% PEG-400. […] (10 ml/kg). The mechanical allodynia was measured at 2 hrs post-dose. Results for compound 175 are shown in FIGS. 1 and 2 where data are presented as paw withdrawal threshold (PWT in g) (FIG. 1) and percentage of maximal possible effect (% MPE) (FIG. 2). Each bar represents the mean±SEM of 8 rats.

In assay [3] the test system is paclitaxel-induced neuropathic pain. The experiment in a line: Paclitaxel chemotherapy-induced neuropathic pain model, von Frey filaments. In kind it is in vivo. The settings on record: rat paclitaxel model, 10 mg/kg i.p.; for % MPE for reversing paclitaxel induced neuropathic pain: mechanical allodynia (von Frey). The source says: Chemotherapy-induced peripheral neuropathy is one of the most serious complications of anti-cancer drug therapy. […] The TRPA1 antagonist, AD_09, has been reported to reduce neuropathic pain in the oxaliplatin model (Nativi, C, et al. (2013) Scientific Reports 3, 2005, 1-10.)
The studies described below provide a method to test compounds of the present invention in the established rat model of paclitaxel-induced neuropathic pain (Flatters, S J and Bennett, G, Pain (2004) 109:150-161) and provide evidence for efficacy for one compound of the present invention. In this procedure, male Sprague-Dawley rats received i.p. injections of 1 mg/kg paclitaxel or vehicle solution every other day for a total of 4 injections (Day 0, 2, 4 and 6). After receiving injections on even-number experimental days, the rats were tested for mechanical and cold allodynia on odd-number experimental days. After the full development of allodynia after the last paclitaxel injection on day 11, one subgroup of the rats (7 rats per treatment group) received an oral dose or i.p. injection of compound of the present invention (e.g., 1, 3, 10 or 30 mg/kg) or its vehicle solution. On the day of treatment, the test compound was administered at 10 mg/kg i.p. (2 ml/kg) dissolved in 10% DMSO, 20% Tween-80, 40% PEG-400. Additional test groups included vehicle control and gabapentin at 10, 30 and 100 mg/kg i.p. (2 ml/kg). The mechanical allodynia was measured at 2 hrs post-dose for compound 271. Mechanical allodynia was measured using the Von Frey filaments to determine the paw withdrawal threshold for each animal and assess the effects of the test compound-s to reduce pain. Rats were tested for mechanical and/or cold allodynia 1 hour after dosing.
Rats can be tested at approximately 2 hour intervals thereafter (time interval dependent on the effect) as long as the effect of TRPA1 antagonist lasts. In some cases, more than one treatment of the compound of the present invention (TRPA1 antagonist) can be given before or after the effect of the previous dose subsides to provide repetitive dosing regimens.

T1 sequence (O75762 whole entry): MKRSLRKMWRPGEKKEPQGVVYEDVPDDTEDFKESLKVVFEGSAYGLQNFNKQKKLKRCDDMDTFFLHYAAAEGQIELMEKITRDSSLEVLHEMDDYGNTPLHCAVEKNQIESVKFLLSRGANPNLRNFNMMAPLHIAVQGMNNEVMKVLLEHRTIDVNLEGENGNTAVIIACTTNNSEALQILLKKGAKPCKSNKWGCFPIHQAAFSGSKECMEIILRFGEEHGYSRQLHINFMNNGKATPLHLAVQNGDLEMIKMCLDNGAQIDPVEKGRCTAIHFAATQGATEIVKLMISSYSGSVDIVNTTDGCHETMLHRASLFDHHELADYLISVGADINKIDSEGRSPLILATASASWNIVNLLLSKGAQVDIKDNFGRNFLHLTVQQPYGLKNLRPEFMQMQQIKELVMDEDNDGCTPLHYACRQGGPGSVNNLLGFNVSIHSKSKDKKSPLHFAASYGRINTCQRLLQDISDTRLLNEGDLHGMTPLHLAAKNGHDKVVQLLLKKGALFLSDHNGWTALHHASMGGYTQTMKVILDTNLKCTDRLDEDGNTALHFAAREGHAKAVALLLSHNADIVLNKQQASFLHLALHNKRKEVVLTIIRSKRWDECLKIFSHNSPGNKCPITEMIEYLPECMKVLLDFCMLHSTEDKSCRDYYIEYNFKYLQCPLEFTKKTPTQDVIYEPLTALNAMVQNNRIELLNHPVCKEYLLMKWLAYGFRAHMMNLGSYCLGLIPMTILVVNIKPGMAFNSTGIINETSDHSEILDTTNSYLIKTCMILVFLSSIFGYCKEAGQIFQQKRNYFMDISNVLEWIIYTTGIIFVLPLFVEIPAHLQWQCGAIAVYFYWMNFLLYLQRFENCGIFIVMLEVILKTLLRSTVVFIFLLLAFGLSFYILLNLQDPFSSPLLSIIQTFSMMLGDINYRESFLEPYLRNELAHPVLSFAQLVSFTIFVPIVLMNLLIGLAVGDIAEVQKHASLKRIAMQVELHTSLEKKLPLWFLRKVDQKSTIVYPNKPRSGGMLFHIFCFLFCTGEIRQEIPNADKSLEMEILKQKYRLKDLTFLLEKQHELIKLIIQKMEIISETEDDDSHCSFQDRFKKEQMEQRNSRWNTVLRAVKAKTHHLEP

As to `O=C(c1cc(-c2ccncc2)n(-c2cc(F)c(F)c(F)c2)n1)N1CCC(n2c(=O)[nH]c3ccc(F)c(F)c32)CC1` [Compound 175], the IC50 in assay [1] was in the range of 0.001 to 5 µM. In addition, in assay [2], the “% MPE (% Maximum Possible Effect)” value was 59 ± 10 (3) ^ %; the “anti-allodynic effect on paw withdrawal threshold and % MPE” value is recorded as “significant anti-allodynic effect”.
The like results for `O=C(c1cc(-c2cccnc2)n(-c2ccc(C(F)(F)F)c(F)c2)n1)N1CCC2(CC1)C(=O)NCN2c1ccc(F)cc1` [Compound 180] were, in that order, 0.001 to 5 µM, 65 (1) % and “significant anti-allodynic effect”.
In the case of `O=C(c1cc(-c2cccnc2)n(-c2cc(F)c(F)c(F)c2)n1)N1CCC(n2c(=O)[nH]c3ccc(F)c(F)c32)CC1` [Compound 198], the IC50 in assay [1] lay in the range of 0.001 to 5 µM. Also, in assay [2], the “% MPE (% Maximum Possible Effect)” value is 41 (1) %; the “anti-allodynic effect on paw withdrawal threshold and % MPE” value is listed as “significant anti-allodynic effect”.
In the case of `O=C(c1cc(-c2cccnc2)n(-c2ccc(F)c(C(F)(F)F)c2)n1)N1CCC(n2c(=O)[nH]c3ccc(F)c(F)c32)CC1` [Compound 271], the “anti-allodynic effect on paw withdrawal threshold” value in assay [3] (2 hrs post-dose, p<0.05) is “significant anti-allodynic effect”. Also, in assay [3], the “% MPE for reversing paclitaxel induced neuropathic pain” value is given as 49.1 % MPE.
Consider `NCC1(CC(=O)O)CCCCC1` [gabapentin, reference compound], for which, in assay [3], the “% MPE for reversing paclitaxel induced neuropathic pain” value is 34.8 % MPE.
